A short description of this data set: Single dose intravenous infusion in rats, toxicokinetic parameters in serum. In kind it is in vivo, Sprague-Dawley rats. The method, then: Compound I-hydrate Form 2 was formulated in 23% Solutol HS-15 and 70% PG and diluted with Lactated Ringer Solution to a concentration of 0.061 mg/mL. […] Dose volume was 10 mL/Kg and the infusion rate was 120 mL/kg/hr.
Following dosing, a series of 12 blood samples (approximately 0.2 mL each) were collected from the rats in the first 72 hours. Following collection, blood samples were allowed to stand at room temperature for approximately 30 to 60 minutes to clot and then centrifused (1200×g for 10 minutes at approximately 4° C.) and the resulting serum was recovered and stored frozen until analysis. Mean toxicokinetic parameters were calculated (Table 7).

In general, AUC(0-inf) refers to total exposure, with the tail of the curve extrapolated. A low value points to less exposure. The term clearance denotes the rate of elimination divided by the concentration.

As for `Cc1[nH]c2ccc(F)cc2c1-c1nc2c3cccnc3c3ncccc3c2[nH]1` [Compound I-hydrate Form 2], for the setting “Sprague-Dawley, rat, male rats serum, 0.5 mg/kg, single IV infusion over 5 min, mean”, the total exposure AUC(0-inf) amounted to 0.13 µg·h/mL. For the same compound, for the setting “Sprague-Dawley, rat, male rats serum, 0.5 mg/kg, single IV infusion over 5 min, mean, read-out: AUC0-Tlast”, the AUC(0-t) stood at 0.1 µg·h/mL. In addition, under “Sprague-Dawley, rat, male rats serum, 0.5 mg/kg, single IV infusion over 5 min, mean, read-out: Cl (total body clearance per kg body weight) (converted)”, the clearance was 3.84 L/h/kg. Moreover, the Cmax (Sprague-Dawley, rat, male rats serum, 0.5 mg/kg, single IV infusion over 5 min, mean, read-out: Cmax (maximum plasma concentration)) came out at 1.75 µg/mL. For the same compound, the half-life (Sprague-Dawley, rat, male rats serum, 0.5 mg/kg, single IV infusion over 5 min, mean, read-out: T1/2 (Terminal elimination half-life) (converted)) is 1.45 h. Further, the Tmax (Sprague-Dawley, rat, male rats serum, 0.5 mg/kg, single IV infusion over 5 min, mean, read-out: Tmax (time to maximum plasma concentration)) amounted to 0 h. Also, the Vd (Sprague-Dawley, rat, male rats serum, 0.5 mg/kg, single IV infusion over 5 min, mean, read-out: Vz (volume of distribution per kg body weight)) stood at 8.04 L/kg. In addition, the “AUC % Extrap” value (male rats serum, 0.5 mg/kg, single IV infusion over 5 min, mean) is listed as 23.1%. Moreover, where the note is “rats, 0.5 mg/kg IV”, the “AUCs, fold higher than with Compound I-HCl salt” value is “approximately 3 fold”; the “Cmax, fold higher than with Compound I-HCl salt” value is “approximately 3 fold”; the “volume of distribution, fold higher than Compound I-HCl salt” value is listed as 1.6 fold.

The record behind these values is US20210380586A1, “2-INDOLYL IMIDAZO[4,5-D]PHENANTHROLINE POLYMORPHS AND COMPOSITIONS REGARDING THE SAME” (Aptose Biosciences Inc., priority 2020, published 2021).
